The supplement of paper PMC10307832

Key:
Assay in all cases: relative viability (nuclei count vs DMSO), 5 days (fraction); higher = more cells survive
Quizartinib + Luminespib = compound: CC(C)(C)c1cc(NC(=O)Nc2ccc(-c3cn4c(n3)sc3cc(OCCN5CCOCC5)ccc34)cc2)no1 [Quizartinib] + CCNC(=O)c1noc(-c2cc(C(C)C)c(O)cc2O)c1-c1ccc(CN2CCOCC2)cc1 [Luminespib] (partner 0.01 µM)
Procedure, shortened: (§1)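 Dosing by pin tool came one day after lung cancer cell lines were seeded in 1536-well plates, using either one drug or a fixed anchor-drug dose plus five library-drug doses (not always all listed) in √10 steps. After 5 days, nuclei were counted on 4× images. Relative viability is treated-well nuclei count divided by vehicle-well nuclei count, and values are medians of duplicate plates.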

Quizartinib + Phenformin = compound: CC(C)(C)c1cc(NC(=O)Nc2ccc(-c3cn4c(n3)sc3cc(OCCN5CCOCC5)ccc34)cc2)no1 [Quizartinib] + N=C(N)NC(=N)NCCc1ccccc1 [Phenformin] (partner 250 µM)
Procedure, shortened: as §1

Quizartinib + Decitabine = compound: CC(C)(C)c1cc(NC(=O)Nc2ccc(-c3cn4c(n3)sc3cc(OCCN5CCOCC5)ccc34)cc2)no1 [Quizartinib] + Nc1ncn([C@H]2C[C@H](O)[C@@H](CO)O2)c(=O)n1 [Decitabine] (partner 2 µM)
Procedure, shortened: as §1

YM155 + Linsitinib = compound: COCC[n+]1c2c(n(Cc3cnccn3)c1C)C(=O)c1ccccc1C2=O [YM155] + C[C@]1(O)C[C@@H](c2nc(-c3ccc4ccc(-c5ccccc5)nc4c3)c3c(N)nccn32)C1 [Linsitinib] (partner 1 µM)
Procedure, shortened: as §1

Cell Line | relative viability (Quizartinib + Luminespib; first compound 0.001 µM) | relative viability (Quizartinib + Luminespib; first compound 0.003162 µM) | relative viability (Quizartinib + Luminespib; first compound 0.01 µM) | relative viability (Quizartinib + Luminespib; first compound 0.03162 µM) | relative viability (Quizartinib + Luminespib; first compound 0.1 µM) | relative viability (Quizartinib + Phenformin; first compound 0.001 µM) | relative viability (Quizartinib + Phenformin; first compound 0.003162 µM) | relative viability (Quizartinib + Phenformin; first compound 0.01 µM) | relative viability (Quizartinib + Phenformin; first compound 0.03162 µM) | relative viability (Quizartinib + Phenformin; first compound 0.1 µM) | relative viability (Quizartinib + Decitabine; first compound 0.001 µM) | relative viability (Quizartinib + Decitabine; first compound 0.003162 µM) | relative viability (Quizartinib + Decitabine; first compound 0.03162 µM) | relative viability (Quizartinib + Decitabine; first compound 0.1 µM) | relative viability (YM155 + Linsitinib; first compound 0.002 µM) | relative viability (YM155 + Linsitinib; first compound 0.006325 µM) | relative viability (YM155 + Linsitinib; first compound 0.02 µM) | relative viability (YM155 + Linsitinib; first compound 0.06325 µM) | relative viability (Quizartinib + Decitabine; first compound 0.01 µM)
HCC-827 | 0.647 | 0.487 | 0.606 | 0.401 | 0.738 | 0.372 | 0.385 | 0.44 | 0.402 | 0.404 | 0.291 | 0.358 | 0.313 | 0.334 | 0.954 | 1.01 | 0.928 | 0.941 | 
HOP-62 | 0.914 | 0.843 | 1.04 | 0.933 | 0.9 | 0.624 | 0.625 | 0.84 | 0.662 | 0.666 | 0.215 | 0.219 | 0.227 | 0.213 | 0.906 | 1.02 | 1.32 | 0.92 | 0.217
IA-LM |  |  |  |  |  |  |  |  |  |  |  |  |  |  | 0.392 | 0.697 | 0.745 | 0.373 | 
LC-2-ad | 0.938 | 1.07 | 0.945 |  | 0.985 | 0.498 | 0.639 | 0.579 |  | 0.502 | 0.718 | 0.81 | 0.841 | 0.68 | 0.806 | 0.957 | 0.814 | 0.753 | 0.776
LCLC-97TM1 | 0.7 | 0.6 | 0.892 | 0.686 | 0.759 | 0.396 | 0.379 | 0.421 | 0.464 | 0.375 | 0.225 | 0.253 | 0.218 | 0.21 | 0.2 | 0.183 | 0.161 | 0.212 | 0.237
LCLC-103H | 1 | 0.896 | 0.989 | 1.04 | 0.961 | 0.306 | 0.276 | 0.341 | 0.337 | 0.361 | 0.632 | 0.735 | 0.796 | 0.759 | 0.999 | 0.974 | 1.16 | 1.16 | 0.682
LK-2 | 0.162 |  | 0.193 | 0.205 | 0.22 | 0.243 |  | 0.47 | 0.138 | 0.108 | 0.263 | 0.215 | 0.348 | 0.438 | 0.425 | 0.764 | 0.491 | 0.796 | 0.363
LOU-NH91 | 0.317 | 0.355 | 0.292 | 0.362 | 0.343 | 0.693 | 0.679 | 0.723 | 0.682 | 0.862 | 0.746 | 0.815 | 0.79 | 0.89 | 1.05 | 0.879 | 0.97 | 0.978 | 0.862
LU99A | 0.268 | 0.216 | 0.234 | 0.257 | 0.237 | 0.774 | 0.78 | 0.904 | 0.533 | 0.248 | 0.923 | 0.918 | 0.895 | 0.625 | 0.581 | 0.503 | 0.554 | 0.545 | 1.02
LXF-289 | 0.63 | 0.666 | 0.778 | 0.699 | 0.794 | 0.485 | 0.496 | 0.529 | 0.497 | 0.539 | 0.347 | 0.321 | 0.432 | 0.42 | 0.97 | 0.86 | 0.999 | 0.828 | 0.427
